# Article PMC5290327, “SC83288 is a clinical development candidate for the treatment of severe malaria” (Nature Communications, 2017)
# Legend:
# Assay in all cases: KINOMEscan
# Format in all cases: binding
# Conditions in all cases: read-out: Remaining enzyme activity
# [1] = biological target: T1, AMPK-alpha2 (Homo sapiens, UniProt P54646)
# T1 construct: purchased Ambit (DiscoverX) KINOMEscan; Cerep
# In short: (§1)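 SC81458 was screened at a single 10 μM final concentration for its ability to compete with an immobilized, active-site directed ligand for each kinase. Kinase in the eluates was measured by quantitative PCR. Beads were blocked with biotin and SeaBlock buffer holding 1% BSA, 0.05% Tween 20 and 1 mM DTT.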
# [2] = biological target: T2, BLK (Homo sapiens, UniProt P51451)
# T2 construct: purchased Ambit (DiscoverX) KINOMEscan; Cerep
# In short: as §1
# [3] = biological target: T3, CAMKK1 (Homo sapiens, UniProt Q8N5S9)
# T3 construct: purchased Ambit (DiscoverX) KINOMEscan; Cerep
# In short: as §1
# [4] = biological target: T4, CDKL2 (Homo sapiens, UniProt Q92772)
# T4 construct: purchased Ambit (DiscoverX) KINOMEscan; Cerep
# T4 sequence (Q92772 whole entry): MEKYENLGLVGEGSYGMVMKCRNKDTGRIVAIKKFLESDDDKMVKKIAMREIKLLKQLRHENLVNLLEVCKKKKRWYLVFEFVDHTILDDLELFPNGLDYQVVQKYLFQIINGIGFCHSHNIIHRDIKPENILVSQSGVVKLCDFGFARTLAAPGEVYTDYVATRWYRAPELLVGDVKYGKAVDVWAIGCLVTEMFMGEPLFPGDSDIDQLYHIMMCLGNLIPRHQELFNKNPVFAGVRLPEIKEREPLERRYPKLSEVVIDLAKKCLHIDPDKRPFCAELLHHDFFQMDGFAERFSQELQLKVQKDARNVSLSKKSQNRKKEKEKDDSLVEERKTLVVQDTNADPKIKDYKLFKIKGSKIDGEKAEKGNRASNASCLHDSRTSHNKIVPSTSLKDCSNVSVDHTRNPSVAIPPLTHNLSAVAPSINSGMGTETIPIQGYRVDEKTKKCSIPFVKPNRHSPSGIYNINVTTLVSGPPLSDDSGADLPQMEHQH
# In short: as §1
# [5] = biological target: T5, CLK2 (Homo sapiens, UniProt P49760)
# T5 construct: purchased Ambit (DiscoverX) KINOMEscan; Cerep
# In short: as §1
# [6] = biological target: T6, CSF1R (Homo sapiens, UniProt P07333)
# T6 construct: purchased Ambit (DiscoverX) KINOMEscan; Cerep
# In short: as §1
# [7] = biological target: T7, CSNK1g2 (Homo sapiens, UniProt P78368)
# T7 construct: purchased Ambit (DiscoverX) KINOMEscan; Cerep
# In short: as §1
# [8] = biological target: T8, EGFR(G719S) (Homo sapiens, UniProt P00533, G719S)
# T8 construct: purchased Ambit (DiscoverX) KINOMEscan; Cerep
# T8 sequence (P00533 25-1210 G719S): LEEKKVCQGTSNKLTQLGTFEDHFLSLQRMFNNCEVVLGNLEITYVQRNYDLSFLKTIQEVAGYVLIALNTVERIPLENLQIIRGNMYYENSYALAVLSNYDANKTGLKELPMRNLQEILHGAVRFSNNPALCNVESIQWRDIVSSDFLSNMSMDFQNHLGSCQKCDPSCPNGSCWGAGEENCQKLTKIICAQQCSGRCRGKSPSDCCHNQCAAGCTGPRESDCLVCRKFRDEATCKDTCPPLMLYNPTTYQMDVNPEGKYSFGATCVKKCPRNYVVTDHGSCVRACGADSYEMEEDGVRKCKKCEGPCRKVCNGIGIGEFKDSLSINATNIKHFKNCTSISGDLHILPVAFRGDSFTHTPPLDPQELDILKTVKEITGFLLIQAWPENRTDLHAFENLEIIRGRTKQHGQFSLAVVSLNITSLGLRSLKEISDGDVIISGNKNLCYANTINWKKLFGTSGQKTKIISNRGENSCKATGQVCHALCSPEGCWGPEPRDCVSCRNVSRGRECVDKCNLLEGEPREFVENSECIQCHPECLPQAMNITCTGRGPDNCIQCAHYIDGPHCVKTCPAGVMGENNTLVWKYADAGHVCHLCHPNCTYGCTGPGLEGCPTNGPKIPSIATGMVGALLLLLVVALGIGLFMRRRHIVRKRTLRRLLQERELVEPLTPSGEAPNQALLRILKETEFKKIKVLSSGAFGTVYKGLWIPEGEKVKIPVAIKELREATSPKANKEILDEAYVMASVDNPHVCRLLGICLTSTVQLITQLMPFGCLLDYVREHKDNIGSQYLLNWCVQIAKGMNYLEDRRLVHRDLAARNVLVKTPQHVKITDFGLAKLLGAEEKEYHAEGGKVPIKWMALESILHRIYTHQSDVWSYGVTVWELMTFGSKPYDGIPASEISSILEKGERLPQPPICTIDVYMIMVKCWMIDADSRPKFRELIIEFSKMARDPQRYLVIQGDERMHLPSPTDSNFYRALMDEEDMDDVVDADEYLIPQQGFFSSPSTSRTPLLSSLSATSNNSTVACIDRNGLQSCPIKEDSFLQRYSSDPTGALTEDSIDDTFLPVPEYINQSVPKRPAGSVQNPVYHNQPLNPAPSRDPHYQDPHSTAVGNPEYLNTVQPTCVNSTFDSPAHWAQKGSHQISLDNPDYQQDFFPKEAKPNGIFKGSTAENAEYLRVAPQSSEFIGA
# In short: as §1
# [9] = biological target: T9, FGFR1 (Homo sapiens, UniProt P11362)
# T9 construct: purchased Ambit (DiscoverX) KINOMEscan; Cerep
# In short: as §1
# [10] = biological target: T10, FLT4 (Homo sapiens, UniProt P35916)
# T10 construct: purchased Ambit (DiscoverX) KINOMEscan; Cerep
# In short: as §1
# [11] = biological target: T11, GRK1 (Homo sapiens, UniProt Q15835)
# T11 construct: purchased Ambit (DiscoverX) KINOMEscan; Cerep
# T11 sequence (Q15835 whole entry): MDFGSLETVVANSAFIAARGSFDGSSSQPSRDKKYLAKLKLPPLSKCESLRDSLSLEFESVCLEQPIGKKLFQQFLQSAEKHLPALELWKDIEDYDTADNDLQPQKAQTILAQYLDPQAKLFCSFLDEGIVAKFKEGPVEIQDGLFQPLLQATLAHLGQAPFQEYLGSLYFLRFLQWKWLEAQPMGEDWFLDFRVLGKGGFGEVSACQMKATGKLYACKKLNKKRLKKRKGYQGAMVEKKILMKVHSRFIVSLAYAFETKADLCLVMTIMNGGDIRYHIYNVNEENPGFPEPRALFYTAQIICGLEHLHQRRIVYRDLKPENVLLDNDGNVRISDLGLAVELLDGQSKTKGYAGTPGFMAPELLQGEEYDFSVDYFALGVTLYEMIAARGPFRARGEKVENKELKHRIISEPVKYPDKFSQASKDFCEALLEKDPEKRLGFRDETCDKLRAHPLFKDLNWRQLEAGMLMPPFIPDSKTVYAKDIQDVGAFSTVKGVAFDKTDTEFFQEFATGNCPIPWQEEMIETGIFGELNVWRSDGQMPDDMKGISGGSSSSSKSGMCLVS
# In short: as §1
# [12] = biological target: T12, GRK4 (Homo sapiens, UniProt P32298)
# T12 construct: purchased Ambit (DiscoverX) KINOMEscan; Cerep
# In short: as §1
# [13] = biological target: T13, HPK1 (Homo sapiens, UniProt Q92918)
# T13 construct: purchased Ambit (DiscoverX) KINOMEscan; Cerep
# T13 sequence (Q92918 whole entry): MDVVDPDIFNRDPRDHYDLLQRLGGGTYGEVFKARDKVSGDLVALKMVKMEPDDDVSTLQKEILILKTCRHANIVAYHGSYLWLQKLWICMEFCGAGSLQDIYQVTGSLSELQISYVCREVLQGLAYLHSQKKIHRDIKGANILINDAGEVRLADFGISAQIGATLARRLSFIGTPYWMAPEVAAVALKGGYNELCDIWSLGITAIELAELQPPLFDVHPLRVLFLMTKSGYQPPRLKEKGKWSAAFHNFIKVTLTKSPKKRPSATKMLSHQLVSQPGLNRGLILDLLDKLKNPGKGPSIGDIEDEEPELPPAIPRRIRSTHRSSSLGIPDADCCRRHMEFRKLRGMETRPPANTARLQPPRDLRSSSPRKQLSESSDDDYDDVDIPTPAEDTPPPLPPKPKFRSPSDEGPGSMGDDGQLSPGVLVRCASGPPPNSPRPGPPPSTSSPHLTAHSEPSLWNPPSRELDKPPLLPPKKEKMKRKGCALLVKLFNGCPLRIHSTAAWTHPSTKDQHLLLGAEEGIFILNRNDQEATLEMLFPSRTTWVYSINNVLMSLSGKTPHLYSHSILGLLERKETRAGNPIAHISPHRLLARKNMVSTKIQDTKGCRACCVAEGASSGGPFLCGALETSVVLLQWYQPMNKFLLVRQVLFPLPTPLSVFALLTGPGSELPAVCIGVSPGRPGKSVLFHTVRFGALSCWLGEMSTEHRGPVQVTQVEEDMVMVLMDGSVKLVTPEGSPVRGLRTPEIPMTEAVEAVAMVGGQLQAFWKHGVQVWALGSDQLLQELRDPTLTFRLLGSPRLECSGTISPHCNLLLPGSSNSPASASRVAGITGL
# In short: as §1
# [14] = biological target: T14, INSR (Homo sapiens, UniProt P06213)
# T14 construct: purchased Ambit (DiscoverX) KINOMEscan; Cerep
# In short: as §1
# [15] = biological target: T15, IRAK3 (Homo sapiens, UniProt Q9Y616)
# T15 construct: purchased Ambit (DiscoverX) KINOMEscan; Cerep
# T15 sequence (Q9Y616 whole entry): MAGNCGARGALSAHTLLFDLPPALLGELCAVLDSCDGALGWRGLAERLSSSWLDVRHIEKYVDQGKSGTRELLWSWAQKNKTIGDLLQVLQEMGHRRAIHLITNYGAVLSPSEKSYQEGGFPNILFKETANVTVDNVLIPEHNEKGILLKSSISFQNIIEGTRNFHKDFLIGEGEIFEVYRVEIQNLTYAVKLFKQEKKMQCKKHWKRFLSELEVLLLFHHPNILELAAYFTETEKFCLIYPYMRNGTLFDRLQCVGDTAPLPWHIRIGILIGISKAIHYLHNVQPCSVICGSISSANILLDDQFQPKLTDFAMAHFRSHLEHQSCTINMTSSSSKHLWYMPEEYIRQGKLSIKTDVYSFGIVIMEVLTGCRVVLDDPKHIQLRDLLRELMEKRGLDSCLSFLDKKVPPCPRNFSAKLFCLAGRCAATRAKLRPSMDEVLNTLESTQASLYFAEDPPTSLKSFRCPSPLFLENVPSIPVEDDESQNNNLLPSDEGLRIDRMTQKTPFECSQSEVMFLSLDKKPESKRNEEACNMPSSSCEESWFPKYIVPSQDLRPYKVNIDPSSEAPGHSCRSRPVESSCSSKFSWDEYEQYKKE
# In short: as §1
# [16] = biological target: T16, MAP3K1 (Homo sapiens, UniProt Q13233)
# T16 construct: purchased Ambit (DiscoverX) KINOMEscan; Cerep
# In short: as §1
# [17] = biological target: T17, MERTK (Homo sapiens, UniProt Q12866)
# T17 construct: purchased Ambit (DiscoverX) KINOMEscan; Cerep
# In short: as §1
# [18] = biological target: T18, MLK1 (Homo sapiens, UniProt P80192)
# T18 construct: purchased Ambit (DiscoverX) KINOMEscan; Cerep
# T18 sequence (P80192 whole entry): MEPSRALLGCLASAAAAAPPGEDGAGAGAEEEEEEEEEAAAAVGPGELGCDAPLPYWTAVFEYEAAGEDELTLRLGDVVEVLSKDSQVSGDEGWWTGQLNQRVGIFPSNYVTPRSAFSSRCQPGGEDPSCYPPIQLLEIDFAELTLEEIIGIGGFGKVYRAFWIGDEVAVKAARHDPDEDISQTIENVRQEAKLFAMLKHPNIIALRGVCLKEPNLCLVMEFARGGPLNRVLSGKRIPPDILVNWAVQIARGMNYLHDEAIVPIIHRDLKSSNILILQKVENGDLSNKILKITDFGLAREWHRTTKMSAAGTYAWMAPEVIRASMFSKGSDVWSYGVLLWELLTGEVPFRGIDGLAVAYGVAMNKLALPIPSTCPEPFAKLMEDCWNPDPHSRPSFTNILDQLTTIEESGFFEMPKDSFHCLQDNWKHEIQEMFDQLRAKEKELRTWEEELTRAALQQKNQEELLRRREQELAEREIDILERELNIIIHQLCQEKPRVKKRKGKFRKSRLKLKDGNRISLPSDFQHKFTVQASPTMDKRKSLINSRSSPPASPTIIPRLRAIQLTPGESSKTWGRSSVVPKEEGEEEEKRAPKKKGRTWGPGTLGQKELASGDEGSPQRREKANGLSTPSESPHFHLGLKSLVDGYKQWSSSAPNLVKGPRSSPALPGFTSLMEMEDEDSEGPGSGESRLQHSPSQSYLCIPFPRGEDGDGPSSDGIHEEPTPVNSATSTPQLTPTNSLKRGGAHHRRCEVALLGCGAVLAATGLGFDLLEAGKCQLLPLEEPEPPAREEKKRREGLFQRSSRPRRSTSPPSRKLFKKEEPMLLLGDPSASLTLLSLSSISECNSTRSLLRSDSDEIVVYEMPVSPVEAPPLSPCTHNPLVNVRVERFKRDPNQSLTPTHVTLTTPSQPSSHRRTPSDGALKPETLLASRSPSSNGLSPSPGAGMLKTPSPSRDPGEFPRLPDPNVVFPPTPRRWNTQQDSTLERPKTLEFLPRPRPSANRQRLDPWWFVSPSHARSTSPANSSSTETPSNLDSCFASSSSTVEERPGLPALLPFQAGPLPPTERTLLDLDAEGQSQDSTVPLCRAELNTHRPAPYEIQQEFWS
# In short: as §1
# [19] = biological target: T19, NEK1 (Homo sapiens, UniProt Q96PY6)
# T19 construct: purchased Ambit (DiscoverX) KINOMEscan; Cerep
# In short: as §1
# [20] = biological target: T20, NEK7 (Homo sapiens, UniProt Q8TDX7)
# T20 construct: purchased Ambit (DiscoverX) KINOMEscan; Cerep
# In short: as §1
# [21] = biological target: T21, PCTK2 (Homo sapiens, UniProt Q00537)
# T21 construct: purchased Ambit (DiscoverX) KINOMEscan; Cerep
# In short: as §1
# [22] = biological target: T22, PIK3Cd (Homo sapiens, UniProt O00329)
# T22 construct: purchased Ambit (DiscoverX) KINOMEscan; Cerep
# In short: as §1
# [23] = biological target: T23, PRKD3 (Homo sapiens, UniProt O94806)
# T23 construct: purchased Ambit (DiscoverX) KINOMEscan; Cerep
# In short: as §1
# [24] = biological target: T24, QSK (Homo sapiens, UniProt Q9Y2K2)
# T24 construct: purchased Ambit (DiscoverX) KINOMEscan; Cerep
# In short: as §1
# [25] = biological target: T25, RIOK2 (Homo sapiens, UniProt Q9BVS4)
# T25 construct: purchased Ambit (DiscoverX) KINOMEscan; Cerep
# In short: as §1
# [26] = biological target: T26, RPS6KA1(Kin.Dom.2-C-term) (Homo sapiens, UniProt Q15418)
# T26 construct: RPS6KA1(Kin.Dom.2-C-term); purchased Ambit (DiscoverX) KINOMEscan; Cerep
# T26 sequence (Q15418 418-675 limits assumed): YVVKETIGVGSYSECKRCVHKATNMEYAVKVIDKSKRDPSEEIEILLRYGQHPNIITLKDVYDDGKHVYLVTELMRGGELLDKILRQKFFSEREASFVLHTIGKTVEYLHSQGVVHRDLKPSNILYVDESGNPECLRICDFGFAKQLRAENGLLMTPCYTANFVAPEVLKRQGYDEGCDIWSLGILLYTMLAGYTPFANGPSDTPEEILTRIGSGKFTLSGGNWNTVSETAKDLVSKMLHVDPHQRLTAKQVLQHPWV
# In short: as §1
# [27] = biological target: T27, TAK1 (Homo sapiens, UniProt O43318)
# T27 construct: purchased Ambit (DiscoverX) KINOMEscan; Cerep
# In short: as §1
# [28] = biological target: T28, TAOK3 (Homo sapiens, UniProt Q9H2K8)
# T28 construct: purchased Ambit (DiscoverX) KINOMEscan; Cerep
# In short: as §1
# [29] = biological target: T29, TGFBR1 (Homo sapiens, UniProt P36897)
# T29 construct: purchased Ambit (DiscoverX) KINOMEscan; Cerep
# In short: as §1
# [30] = biological target: T30, TNNI3K (Homo sapiens, UniProt Q59H18)
# T30 construct: purchased Ambit (DiscoverX) KINOMEscan; Cerep
# In short: as §1
# [31] = biological target: T31, TRKb (Homo sapiens, UniProt Q16620)
# T31 construct: purchased Ambit (DiscoverX) KINOMEscan; Cerep
# In short: as §1
# [32] = biological target: T32, TYK2(JHdomain-catalytic) (Homo sapiens, UniProt P29597)
# T32 construct: TYK2(JHdomain-catalytic); purchased Ambit (DiscoverX) KINOMEscan; Cerep
# In short: as §1
# [33] = biological target: T33, ULK3 (Homo sapiens, UniProt Q6PHR2)
# T33 construct: purchased Ambit (DiscoverX) KINOMEscan; Cerep
# In short: as §1
compound,measurement,setting,value
"CCCCN1CCN(C(=N)c2cccc(NC(=O)Nc3ccc(S(=O)(=O)NCc4ccc(S(N)(=O)=O)cc4)cc3)c2)CC1 [SC81458, 4-(3-(3-((4-butylpiperazin-1-yl)(imino)methyl)phenyl)ureido)-N-(4-sulfamoylbenzyl) benzenesulfonamide]",remaining binding at 10 µM,[1],96%
same,remaining binding at 10 µM,[2],100%
same,remaining binding at 10 µM,[3],93%
same,remaining binding at 10 µM,[4],100%
same,remaining binding at 10 µM,[5],100%
same,remaining binding at 10 µM,[6],82%
same,remaining binding at 10 µM,[7],100%
same,remaining binding at 10 µM,[8],100%
same,remaining binding at 10 µM,[9],100%
same,remaining binding at 10 µM,[10],100%
same,remaining binding at 10 µM,[11],100%
same,remaining binding at 10 µM,[12],92%
same,remaining binding at 10 µM,[13],100%
same,remaining binding at 10 µM,[14],100%
same,remaining binding at 10 µM,[15],69%
same,remaining binding at 10 µM,[16],100%
same,remaining binding at 10 µM,[17],100%
same,remaining binding at 10 µM,[18],64%
same,remaining binding at 10 µM,[19],83%
same,remaining binding at 10 µM,[20],95%
same,remaining binding at 10 µM,[21],97%
same,remaining binding at 10 µM,[22],73%
same,remaining binding at 10 µM,[23],100%
same,remaining binding at 10 µM,[24],100%
same,remaining binding at 10 µM,[25],98%
same,remaining binding at 10 µM,[26],100%
same,remaining binding at 10 µM,[27],100%
same,remaining binding at 10 µM,[28],100%
same,remaining binding at 10 µM,[29],100%
same,remaining binding at 10 µM,[30],100%
same,remaining binding at 10 µM,[31],100%
same,remaining binding at 10 µM,[32],76%
same,remaining binding at 10 µM,[33],73%
